Our source for the TGI values is PubChem BioAssay (NCI).

Holding throughout (test): NCI tumour cell line growth inhibition, 48 h
The test system of experiment [1] is HOP-62 NSCLC.
Experiment [2] relates to MDA-N.
Experiment [3] concerns UO-31 renal.
The subject of experiment [4] is NCI-H522 lung.
The subject of experiment [5] is SK-OV-3 ovarian.
Experiment [6] has as its system HS 578T breast.
The subject of experiment [7] is ACHN renal.
For experiment [8], the system named is K-562 leukemia.
In experiment [9] the test system is HOP-92 NSCLC.
Experiment [10] relates to SF-295 CNS.
Experiment [11] concerns PC-3 prostate.
In experiment [12] the test system is SK-MEL-5 melanoma.
The test system of experiment [13] is T-47D breast.
The subject of experiment [14] is RPMI-8226 leukemia.
In experiment [15] the test system is IGROV1 ovarian.
In experiment [16] the test system is CCRF-CEM leukemia.
For experiment [17], the system named is SF-539 CNS.
Experiment [18] concerns SR leukemia.
Experiment [19] has as its system MDA-MB-231 breast.
Experiment [20] has as its system CAKI-1 renal.

SMILES strings stand for the structures.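 1) Cells in 96-well plates. 2) Compound, 48 h, 5 concentrations. 3) Linear interpolation between surrounding doses. 4) Unreached endpoint = highest concentration. TGI denotes the concentration required for complete inhibition of growth.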

As for `c1ccc(-c2nnc(-c3ccccn3)c3c2C[C@@H]2C[C@@H]4Cc5c(-c6ccccn6)nnc(-c6ccccn6)c5[C@@H]4[C@H]32)nc1`, the TGI in [1], in experiment [2], in [3], in [4], in experiment [5] and in experiment [6] was > 100 µM in each case. Also, the TGI in experiment [7], in [8], in experiment [9], in [10], in experiment [11] and in [12] was > 100 µM throughout. In addition, the TGI in experiment [13], in experiment [14], in [15], in [16], in experiment [17] and in experiment [18] was > 100 µM each time. The TGI in experiment [19] and in [20] was > 100 µM in each case.
For `CN1CCc2c3n(c4cc(Br)ccc24)[C@H](O)CCCC31` (some centres undefined), the TGI in experiment [1] is > 10 µM; in experiment [2], 3.24 µM; in experiment [3] it was > 10 µM; in experiment [4], 3.01 µM; in [5], > 10 µM; in [6], 4.57 µM. Moreover, the TGI in experiment [7] was > 10 µM; in experiment [8] it was 1.88 µM; in experiment [9], > 9.12 µM; in [10] it was 3.53 µM; in [11] it was > 10 µM; in [12], > 8.72 µM. Also, the TGI is > 10 µM in experiment [13]; 5.36 µM in experiment [14]; > 10 µM in experiment [15]; 3.74 µM in [16]; 3.5 µM in experiment [17]; 4.05 µM in experiment [18]. Also, the results for the TGI in [19] and in experiment [20] were 4.38 µM and > 7.17 µM, respectively.
As for `Cc1ccc2nc(Cl)c(/C=N/N3C(=O)/C(=C/c4cccc([N+](=O)[O-])c4)N=C3c3ccccc3)cc2c1`, the TGI was > 100 µM in experiment [1]; 42.2 µM in experiment [2]; > 100 µM in experiment [3]; > 100 µM in [5]; > 100 µM in experiment [6]; > 100 µM in experiment [7]. Besides, the TGI in [8] was > 100 µM; in [9], > 100 µM; in experiment [10], > 100 µM; in experiment [11] it was 76.9 µM; in experiment [12], > 100 µM; in experiment [13], > 100 µM. The TGI in experiment [14] is > 100 µM; in [15] it was > 100 µM; in experiment [16], 97 µM; in [17], > 100 µM; in experiment [18], 59.6 µM; in experiment [19] it was > 100 µM. Moreover, the TGI in [20] is > 100 µM.
Consider `CC(=O)OC/C=C/[C@H](O[Si](C)(C)C(C)(C)C)[C@@H](O)/C=C/COC(C)=O`, for which the TGI in experiment [1], in experiment [2], in [3], in [4], in experiment [5] and in experiment [6] was > 100 µM in each case. In addition, the TGI in experiment [7] was > 100 µM; in [8], 52.8 µM; in experiment [9], > 100 µM; in experiment [10] it was > 100 µM; in experiment [11], > 100 µM; in [12], > 100 µM. For the same compound, the TGI in [13] is > 100 µM; in [14], 43.7 µM; in [15], > 100 µM; in experiment [16] it was 52 µM; in experiment [17], > 100 µM; in [18], 86.2 µM. Moreover, the TGI in [19] and in [20] was > 100 µM each time.
For `CC(=O)N1C(OC(C)C)CC(C)N1c1ccccc1` (centres undefined), the TGI in experiment [1], in experiment [2], in experiment [6], in experiment [7], in experiment [8] and in experiment [9] was > 10 µM in each case. Besides, the TGI in experiment [10], in [11], in experiment [12], in experiment [13], in [14] and in [15] was > 10 µM each time. The TGI in [16], in experiment [17], in experiment [18], in experiment [19] and in [20] was > 10 µM throughout.
In the case of `CC[C@@]1(O)C(=O)OCc2c1cc1n(c2=O)Cc2c-1nc1ccccc1c2/C=N\NC(=O)C(N)CO` (some centres undefined), the TGI in experiment [1] was 9.35 µM; in [2], > 100 µM; in experiment [3], 11 µM; in [4], > 42.2 µM; in [5] it was > 100 µM; in experiment [6], > 100 µM. The TGI in experiment [8] is > 100 µM; in experiment [9] it was 50.5 µM; in experiment [10] it was > 100 µM; in experiment [11], > 100 µM; in experiment [12], 2.55 µM; in experiment [13] it was > 100 µM. The TGI was > 73.2 µM in experiment [14]; > 100 µM in experiment [15]; > 19.7 µM in experiment [16]; 0.763 µM in experiment [17]; 3.59 µM in experiment [18]; > 100 µM in experiment [19]. For the same compound, the TGI in experiment [20] was > 27.2 µM.
Regarding `CC1(C)CC(C2=NCCO2)CC(C)(C)N1`, the TGI in experiment [1], in experiment [2], in [3], in experiment [5], in experiment [6] and in experiment [7] was > 100 µM throughout. Further, the TGI in experiment [8], in experiment [9], in experiment [10], in [11], in [12] and in experiment [13] was > 100 µM each time. Besides, the TGI in experiment [14], in experiment [15], in experiment [16], in [17], in experiment [18] and in [19] was > 100 µM each time. In addition, the TGI in experiment [20] was > 100 µM.
